The values below come from the supplement of paper PMC6965134.

This data set in a line: TIMS collisional cross section (CCS, N2) of the lipid ion; higher = larger ion cross section. The following applies: ionization mode: positive, one isomer drawn.

Molecules are shown by their SMILES. ± gives the standard deviation of the averaged measurements.

For `CCCCCC/C=C\CCCCCCCC(=O)OC[C@H](COC(=O)CCCCCCC/C=C\CCCCCCCC)OC(=O)CCCCCCC/C=C\CCCCCC` [TG 16:1_16:1_18:1] (ion (formula + adduct): [C53H96O6+NH4] 1+), the “TIMS collisional cross section” value (sample type: HeLa) came out at 313.4 Å².
`CCCCC/C=C\C/C=C\CCCCCCCC(=O)OC[C@@H](COC(=O)CCCCCCC/C=C\CCCCCC)OC(=O)CCCCCCC/C=C\CCCCCC` [TG 16:1_16:1_18:2] (ion (formula + adduct): [C53H94O6+NH4] 1+): the “TIMS collisional cross section” value amounted to 311.9 Å² (sample type: HeLa), 310.5 Å² (sample type: Liver) and 311.2 Å² (sample type: plasma).
Consider `CC/C=C\C/C=C\C/C=C\C/C=C\C/C=C\C/C=C\CCC(=O)OC[C@@H](COC(=O)CCCCCCC/C=C\CCCCCC)OC(=O)CCCCCCC/C=C\CCCCCC` [TG 16:1_16:1_22:6] (ion (formula + adduct): [C57H94O6+NH4] 1+), for which the “TIMS collisional cross section” value (sample type: HeLa) was determined as 318.5 Å² and the “TIMS collisional cross section” value (sample type: Liver) is given as 317.3 Å².
On to `CCCCCC/C=C\CCCCCCCC(=O)OC[C@H](COC(=O)CCCCCCC/C=C\CCCCCCC)OC(=O)CCCCCCCCCCCCCCCC` [TG 16:1_17:0_17:1] (ion (formula + adduct): [C53H98O6+NH4] 1+), for which the “TIMS collisional cross section” value (sample type: HeLa) came out at 315.7 Å².
Still for that read-out and setting: for `CCCCCC/C=C\CCCCCCCC(=O)OC[C@H](COC(=O)CCCCCCCCCCCCCCCCC)OC(=O)CCCCCCCCCCCCCCCC` [TG 16:1_17:0_18:0] (ion (formula + adduct): [C54H102O6+NH4] 1+) the value was 320.7 Å².
For the compound `CCCCCC/C=C\CCCCCCCC(=O)OC[C@H](COC(=O)CCCCCCC/C=C\CCCCCCC)OC(=O)CCCCCCC/C=C\CCCCCCC` [TG 16:1_17:1_17:1] (ion (formula + adduct): [C53H96O6+NH4] 1+), the “TIMS collisional cross section” value (sample type: HeLa) was determined as 314.8 Å².
Same read-out and setting: the figure for `CCCCCC/C=C\CCCCCCCC(=O)OC[C@H](COC(=O)CCCCCCCCCCCCCCCCC)OC(=O)CCCCCCC/C=C\CCCCCCC` [TG 16:1_17:1_18:0] (ion (formula + adduct): [C54H100O6+NH4] 1+) is 318.7 Å².
The same measure, in the same setting: the figure for `CCCCCC/C=C\CCCCCCCC(=O)OC[C@H](COC(=O)CCCCCCC/C=C\CCCCCCCC)OC(=O)CCCCCCC/C=C\CCCCCCC` [TG 16:1_17:1_18:1] (ion (formula + adduct): [C54H98O6+NH4] 1+) is 316.5 Å².
In the case of `CCCCC/C=C\C/C=C\CCCCCCCC(=O)OC[C@@H](COC(=O)CCCCCCC/C=C\CCCCCC)OC(=O)CCCCCCC/C=C\CCCCCCC` [TG 16:1_17:1_18:2] (ion (formula + adduct): [C54H96O6+NH4] 1+), the “TIMS collisional cross section” value (sample type: HeLa) was found to be 315.1 Å², the “TIMS collisional cross section” value (sample type: Liver) worked out at 313.9 Å² and the “TIMS collisional cross section” value (sample type: plasma) came out at 314.6 Å².
Regarding `CC/C=C\C/C=C\C/C=C\CCCCCCCC(=O)OC[C@@H](COC(=O)CCCCCCC/C=C\CCCCCC)OC(=O)CCCCCCC/C=C\CCCCCCC` [TG 16:1_17:1_18:3] (ion (formula + adduct): [C54H94O6+NH4] 1+), the “TIMS collisional cross section” value (sample type: HeLa) stood at 314.8 Å².
As for `CCCCC/C=C\C/C=C\CCCCCCCC(=O)OC[C@@H](COC(=O)CCCCCCC/C=C\CCCCCC)OC(=O)CCCCCCCCCCCCCCCCC` [TG 16:1_18:0_18:2] (ion (formula + adduct): [C55H100O6+NH4] 1+), the “TIMS collisional cross section” value by setting is: (sample type: HeLa) 319.7 Å²; (sample type: Liver) 319.7 Å².
Turning to `CCCCCC/C=C\CCCCCCCC(=O)OC[C@H](COC(=O)CCCCCCCCC/C=C\CCCCCCCC)OC(=O)CCCCCCCCCCCCCCCCC` [TG 16:1_18:0_20:1] (ion (formula + adduct): [C57H106O6+NH4] 1+), under “sample type: Liver”, the “TIMS collisional cross section” value is on record as 328.2 Å².
Take `CCCCC/C=C\C/C=C\C/C=C\C/C=C\CCCC(=O)OC[C@@H](COC(=O)CCCCCCC/C=C\CCCCCC)OC(=O)CCCCCCCCCCCCCCCCC` [TG 16:1_18:0_20:4] (ion (formula + adduct): [C57H100O6+NH4] 1+): where the note is “sample type: Liver”, the “TIMS collisional cross section” value is given as 324.7 Å².
`CCCCCC/C=C\CCCCCCCC(=O)OC[C@H](COC(=O)CCCCCCCCCCCCCCCCCCCCC)OC(=O)CCCCCCCCCCCCCCCCC` [TG 16:1_18:0_22:0] (ion (formula + adduct): [C59H112O6+NH4] 1+): the “TIMS collisional cross section” value (sample type: plasma) stood at 335.9 Å².
`CC/C=C\C/C=C\C/C=C\C/C=C\C/C=C\C/C=C\CCC(=O)OC[C@@H](COC(=O)CCCCCCC/C=C\CCCCCC)OC(=O)CCCCCCCCCCCCCCCCC` [TG 16:1_18:0_22:6] (ion (formula + adduct): [C59H100O6+NH4] 1+): the “TIMS collisional cross section” value (sample type: HeLa) was 327.7 Å².
On to `CCCCCC/C=C\CCCCCCCC(=O)OC[C@H](COC(=O)CCCCCCC/C=C\CCCCCCCC)OC(=O)CCCCCCC/C=C\CCCCCCCC` [TG 16:1_18:1_18:1] (ion (formula + adduct): [C55H100O6+NH4] 1+), for which the “TIMS collisional cross section” value runs as follows: (sample type: HeLa) 320 Å²; (sample type: plasma) 320.1 Å².
For the compound `CCCCC/C=C\C/C=C\CCCCCCCC(=O)OC[C@@H](COC(=O)CCCCCCC/C=C\CCCCCC)OC(=O)CCCCCCC/C=C\CCCCCCCC` [TG 16:1_18:1_18:2] (ion (formula + adduct): [C55H98O6+NH4] 1+), the “TIMS collisional cross section” value reads like this: (sample type: HeLa) 318.2 Å²; (sample type: Liver) 317.35 ± 0.35 Å²; (sample type: plasma) 317.4 ± 0.42 Å².
On to `CCCCCC/C=C\CCCCCCCC(=O)OC[C@H](COC(=O)CCCCCCCCC/C=C\CCCCCCCC)OC(=O)CCCCCCC/C=C\CCCCCCCC` [TG 16:1_18:1_20:1] (ion (formula + adduct): [C57H104O6+NH4] 1+), for which the “TIMS collisional cross section” value (sample type: HeLa) is 326 Å² and the “TIMS collisional cross section” value (sample type: Liver) was 327 Å².
Turning to `CCCCC/C=C\C/C=C\CCCCCCCCCC(=O)OC[C@@H](COC(=O)CCCCCCC/C=C\CCCCCC)OC(=O)CCCCCCC/C=C\CCCCCCCC` [TG 16:1_18:1_20:2] (ion (formula + adduct): [C57H102O6+NH4] 1+), the “TIMS collisional cross section” value (sample type: Liver) is on record as 324.7 Å².
On the same count and under the same terms, the figure for `CCCCC/C=C\C/C=C\C/C=C\C/C=C\CCCC(=O)OC[C@@H](COC(=O)CCCCCCC/C=C\CCCCCC)OC(=O)CCCCCCC/C=C\CCCCCCCC` [TG 16:1_18:1_20:4] (ion (formula + adduct): [C57H98O6+NH4] 1+) is 323.5 Å².
For the compound `CC/C=C\C/C=C\C/C=C\C/C=C\C/C=C\CCCCCC(=O)OC[C@@H](COC(=O)CCCCCCC/C=C\CCCCCC)OC(=O)CCCCCCC/C=C\CCCCCCCC` [TG 16:1_18:1_22:5] (ion (formula + adduct): [C59H100O6+NH4] 1+), the “TIMS collisional cross section” value by setting is: (sample type: HeLa) 325.9 Å²; (sample type: plasma) 327.7 Å².
`CCCCC/C=C\C/C=C\CCCCCCCC(=O)OC[C@@H](COC(=O)CCCCCCC/C=C\CCCCCC)OC(=O)CCCCCCC/C=C\C/C=C\CCCCC` [TG 16:1_18:2_18:2] (ion (formula + adduct): [C55H96O6+NH4] 1+): where the note is “sample type: Liver”, the “TIMS collisional cross section” value was 315.45 ± 0.49 Å².
For the compound `CC/C=C\C/C=C\C/C=C\CCCCCCCC(=O)OC[C@@H](COC(=O)CCCCCCC/C=C\CCCCCC)OC(=O)CCCCCCC/C=C\C/C=C\CCCCC` [TG 16:1_18:2_18:3] (ion (formula + adduct): [C55H94O6+NH4] 1+), the “TIMS collisional cross section” value stood at 312.8 Å² (sample type: Liver) and 314.1 Å² (sample type: plasma).
As for `CCCCC/C=C\C/C=C\CCCCCCCCCCCC(=O)OC[C@@H](COC(=O)CCCCCCC/C=C\CCCCCC)OC(=O)CCCCCCC/C=C\CCCCCCCCC` [TG 16:1_19:1_22:2] (ion (formula + adduct): [C60H108O6+NH4] 1+), under “sample type: HeLa”, the “TIMS collisional cross section” value turned out to be 332.3 Å².
On the same count and under the same terms, for `CCCCC/C=C\C/C=C\C/C=C\C/C=C\CCCC(=O)OC[C@@H](COC(=O)CCCCCCC/C=C\CCCCCC)OC(=O)CCC/C=C\C/C=C\C/C=C\C/C=C\CCCCC` [TG 16:1_20:4_20:4] (ion (formula + adduct): [C59H96O6+NH4] 1+) the value was 323 Å².
For `CC/C=C\C/C=C\C/C=C\C/C=C\C/C=C\CCCCCC(=O)OC[C@@H](COC(=O)CCCCCCC/C=C\CCCCCC)OC(=O)CCC/C=C\C/C=C\C/C=C\C/C=C\CCCCC` [TG 16:1_20:4_22:5] (ion (formula + adduct): [C61H98O6+NH4] 1+), under “sample type: HeLa”, the “TIMS collisional cross section” value is recorded as 328.2 Å².
Still for that read-out and setting: for `CC/C=C\C/C=C\C/C=C\C/C=C\C/C=C\C/C=C\CCC(=O)OC[C@@H](COC(=O)CCCCCCC/C=C\CCCCCC)OC(=O)CCCCC/C=C\C/C=C\C/C=C\C/C=C\C/C=C\CC` [TG 16:1_22:5_22:6] (ion (formula + adduct): [C63H98O6+NH4] 1+) the value was 332.4 Å²; for `CC/C=C\C/C=C\C/C=C\C/C=C\C/C=C\C/C=C\CCC(=O)OC[C@@H](COC(=O)CCCCCCC/C=C\CCCCCC)OC(=O)CC/C=C\C/C=C\C/C=C\C/C=C\C/C=C\C/C=C\CC` [TG 16:1_22:6_22:6] (ion (formula + adduct): [C63H96O6+NH4] 1+), 329.5 Å².
In the case of `CCCCCCC/C=C\CCCCCCCC(=O)O[C@@H](COC(=O)CCCCCCC/C=C\CCCCCCCC)COC(=O)CCCCCCCCCCCCCCCC` [TG 17:0_17:1_18:1] (ion (formula + adduct): [C55H102O6+NH4] 1+), the “TIMS collisional cross section” value is, setting by setting: (sample type: HeLa) 322.1 Å²; (sample type: Liver) 322.4 Å²; (sample type: plasma) 322.7 Å².
As for `CCCCCCCC/C=C\CCCCCCCC(=O)OC[C@@H](COC(=O)CCCCCCCCCCCCCCCC)OC(=O)CCCCCCCCCCCCCCCCC` [TG 17:0_18:0_18:1] (ion (formula + adduct): [C56H106O6+NH4] 1+), the “TIMS collisional cross section” value by setting is: (sample type: HeLa) 327.3 Å²; (sample type: Liver) 327.7 Å²; (sample type: plasma) 327.4 Å².
Regarding `CCCCCCCC/C=C\CCCCCCCC(=O)OC[C@@H](COC(=O)CCCCCCCCCCCCCCCC)OC(=O)CCCCCCC/C=C\CCCCCCCC` [TG 17:0_18:1_18:1] (ion (formula + adduct): [C56H104O6+NH4] 1+), the “TIMS collisional cross section” value (sample type: plasma) was 325.5 Å².
